Values of other authors as cited in patent US7138430B2, “Nitrosated and nitrosylated nebivolol and its metabolites, compositions and methods of use” (NitroMed, Inc., priority 2001, dated 2006).

**Q.** For O=[N+]([O-])O[C@H]1CO[C@H]2[C@@H]1OC[C@H]2O[N+](=O)[O-] [isosorbide dinitrate, 1,4,3,6-dianhydro-D-glucitol-2,5-dinitrate], which “solubility in organic solvents” value (organic solvents such as ethanol, ether and chloroform) is on record?
**A.** freely soluble

**Q.** And the solubility in water (water)?
**A.** sparingly soluble
